Measurements from patent US20100144890A1, “USE OF A SURFACTANT FOR THE PREPARATION OF A FORMULATION FOR THE TREATMENT OF ADIPOSE DISEASES” (priority 2007, published 2010).
Like-named read-outs stand apart in the source and are kept apart here.

How the values were obtained:
Assay type in all cases: cell-based
[1] = test system: Adipocytes (method: 3T3-L1 adherent cells); experiment: Calcein-AM cytotoxicity / cell viability assay
Protocol: Cytotoxicity Assay in Adherent Cells (3T3-L1) using the Calcein-AM Method:
[…] […] […] Then, the wells were washed and the cells incubated with Calcein-AM (1 μM) (Molecular Probes) for 30 min. Then the fluorescence of viable cells was detected in a microtitre plate reader (TECAN Genius Pro). Using this method the uptake of Calcein-AM by viable cells is measured. Calcein-AM his hydrolysed by cellular esterases and then the fluorescence emitted by calcein is detected in the plate reader (excitation: 490 nm, emission: 515 nm)
[…] In this type of assay the higher RFU (relative fluorescent unit) correspond to viable cells.

[2] = test system: Primary human preadipocytes; experiment: LDH release cytotoxicity assay (CytoTox-ONE) in undifferentiated preadipocytes
Protocol: (§1) Primary human preadipocytes were obtained from Promocell (Heidelberg, Germany). The Order No is C-12731 and the Lot-No 5112201 (abdomen, person).
Human preadipocytes cells were maintained in Preadipocyte Growth Medium (DMEM; BioWhitaker Cat: BE12-604F/U1; Lot N° 6MB0130 containing 10% heat-inactivated FCS and 1% penicillin-streptomycin) at 37° C. in a humidified atmosphere of 5% CO2. The cells were expanded in several T75 flasks to reach 60-80% confluence. To differentiate the preadipocytes (10^4 cells/well) were grown in 96 well plates to reach confluence. At this point (day 0), cells were switched to differentiation medium (DMEM, 10% FBS, 0.25 μM dexamethasone, 0.25 mM IBMX, and […] insulin) for 3 days, with one medium change in between. On day 3, the dexamethasone and IBMX was removed leaving insulin on the cells for an additional 4 days, changing the medium every 2 days. Thereafter, the cells were maintained in the original propagation DMEM, changing medium every 2-3 days until use. Plates where cells are >75% differentiated were used for experiments (day 10 post-induction). […]
Cytotoxicity assays: The CytoTox-ONE™ Homogeneous Membrane Integrity Assay from Promega was used to study LDH release (The Lot-No 234242/27/09/08). Differentiated adipocytes were treated with the test compounds for either 24 or 48 hours and the release of LDH detected using the fluorimetric assay CytoTox-ONE (see above) according to the manufacturer's instructions. Maximum LDH release was determined by complete lysis of cells using 0.1% Triton X-100. […] The fluorescence was detected in a Genius Pro apparatus using specific 96 microwells plates for fluorescence. […]
(§2) The percentages cytotoxicity by LDH release were calculated according to the manufacturer's instruction (http://www.promega.com/tbs/tb306/tb306.pdf)
(§3) According to this calculation the spontaneous release in untreated cells may indicate some cytotoxicity in untreated cells. […] This type of calculation may induce to misinterpretations and therefore the specific cytotoxicity was calculated according to the following formula: […]

[3] = test system: differentiated human primary adipocytes; experiment: LDH release cytotoxicity assay (CytoTox-ONE) in differentiated adipocytes
Protocol: as §1
Human preadipocytes cells were maintained in Preadipocyte Growth Medium (DMEM; BioWhitaker Cat: BE12-604F/U1; Lot N° 6MB0130 containing 10% heat-inactivated FCS and 1% penicillin-streptomycin) at 37° C. in a humidified atmosphere of 5% CO2. The cells were expanded in several T75 flasks to reach 60-80% confluence. To differentiate the preadipocytes (10^4 cells/well) were grown in 96 well plates to reach confluence. At this point (day 0), cells were switched to differentiation medium (DMEM, 10% FBS, 0.25 μM dexamethasone, 0.25 mM IBMX, and […] insulin) for 3 days, with one medium change in between. On day 3, the dexamethasone and IBMX was removed leaving insulin on the cells for an additional 4 days, changing the medium every 2 days. Thereafter, the cells were maintained in the original propagation DMEM, changing medium every 2-3 days until use. Plates where cells are >75% differentiated were used for experiments (day 10 post-induction). Adipocytes are round and full of easily distinguishable fat globules after 7 days of culture.
Cytotoxicity assays: The CytoTox-ONE™ Homogeneous Membrane Integrity Assay from Promega was used to study LDH release (The Lot-No 234242/27/09/08). Differentiated adipocytes were treated with the test compounds for either 24 or 48 hours and the release of LDH detected using the fluorimetric assay CytoTox-ONE (see above) according to the manufacturer's instructions. Maximum LDH release was determined by complete lysis of cells using 0.1% Triton X-100. Control cells treated with water alone were used to determine the baseline level of LDH release (0% cell death). The fluorescence was detected in a Genius Pro apparatus using specific 96 microwells plates for fluorescence. We used excitation filters in the 530-570 nm range and emission filters in the 580-620 nm range.
as §2, §3
S.C. values below 0% were considered arbitrary as 0% of substance-induced cytotoxicity.
To confirm the cytotoxic activity of the test substance at certain concentrations, undifferentiated (24 h treatment) and differentiated human primary adipocytes the cultures were treated with the indicated dilutions during 24 h and 48 h and the release of LDH measured in the supernatants.

[4] = Table 2, dilution 1:12800, 24 h

Molecule	Adipocytes (Calcein-AM) 24 h, toxicity ([1]; dilution 1:50)	Adipocytes (Calcein-AM) 24 h, toxicity ([1]; dilution 1:100)	Adipocytes (Calcein-AM) 24 h, toxicity ([1]; dilution 1:200)	Adipocytes (Calcein-AM) 24 h, toxicity ([1]; dilution 1:400)	Adipocytes (Calcein-AM) 24 h, toxicity ([1]; dilution 1:6400)	Adipocytes (Calcein-AM) 24 h, toxicity ([1]; dilution 1:12800)	Adipocytes (LDH) 24 h, toxicity ([3]; Table 2, dilution 1:50, 24 h)	Adipocytes (LDH) 24 h, toxicity ([3]; Table 2, dilution 1:100, 24 h)	Adipocytes (LDH) 24 h, toxicity ([3]; Table 2, dilution 1:200, 24 h)	Adipocytes (LDH) 24 h, toxicity ([3]; Table 2, dilution 1:800, 24 h)	Adipocytes (LDH) 24 h, toxicity ([3]; Table 2, dilution 1:1600, 24 h)	Adipocytes (LDH) 24 h, toxicity ([3]; Table 2, dilution 1:3200, 24 h)	Adipocytes (LDH) 24 h, toxicity ([3]; Table 2, dilution 1:6400, 24 h)	Adipocytes (LDH) 24 h, toxicity [3, 4]	further results
CCCCCCCCCCCCOS(=O)(=O)[O-].[Na+] [sodium laurylsulfate]	–	–	–	–	–	–	–	–	–	–	–	–	–	–	potency compared with the other inventive substances ([1]; cytotoxicity on adipocytes): even more potent; Adipocytes (Calcein-AM) 6 h, toxicity ([1]; dilution 1:4000): Toxic; Adipocytes (Calcein-AM) 24 h, toxicity ([1]; dilution 1:4000): Toxic; Adipocytes (Calcein-AM) 6 h, toxicity ([1]; dilution 1:16,000): Toxic; Adipocytes (Calcein-AM) 24 h, toxicity ([1]; dilution 1:16,000): Toxic; Adipocytes (Calcein-AM) 6 h, toxicity ([1]; dilution 1:512000): Non-Toxic; Adipocytes (Calcein-AM) 24 h, toxicity ([1]; dilution 1:512000): Non-Toxic
polyethoxylated castor oil [Test Substance 2]	Toxic	Toxic	Toxic	Toxic	Non-toxic	Non-toxic	Toxic	Toxic	Toxic	Non-toxic	Non-toxic	Non-toxic	Non-toxic	Non-toxic	Preadipocytes (LDH) 24 h, cytotoxicity ([2]; dilution 1:512, 24 h treatment): Toxic (32.6%); Preadipocytes (LDH) 24 h, toxicity ([2]; dilution 1:10000, 24 h treatment): Non-toxic; Differentiated Adipocytes (LDH) 24 h, cytotoxicity ([3]; Table 1, dilution 1:512, 24 h): Toxic (56.1%); Differentiated Adipocytes (LDH) 24 h, toxicity ([3]; Table 1, dilution 1:10000, 24 h): Non-toxic; Adipocytes (LDH) 24 h, cytotoxicity ([3]; Table 2, dilution 1:400, 24 h): Toxic (43.6%); Differentiated Adipocytes (LDH) 48 h, cytotoxicity ([3]; dilution 1:512, 48 h): Toxic (100%); Differentiated Adipocytes (LDH) 48 h, cytotoxicity ([3]; dilution 1:10000, 48 h): toxic (20.3%)
polysorbate 80 [Test Substance 1]	Toxic	Toxic	Toxic	Toxic	Non-toxic	Non-toxic	Toxic	Toxic	Toxic	Toxic	Non-toxic	Non-toxic	Non-toxic	Non-toxic	Adipocytes (Calcein-AM) 24 h, toxicity ([1]; dilution 1:800): Toxic; Adipocytes (Calcein-AM) 24 h, toxicity ([1]; dilution 1:3200): Non-toxic; Preadipocytes (LDH) 24 h, cytotoxicity [2]: Toxic (38.1%); Differentiated Adipocytes (LDH) 24 h, cytotoxicity [3]: Toxic (42.8%); Differentiated Adipocytes (LDH) 48 h, cytotoxicity [3]: Toxic (100%); Adipocytes (LDH) 24 h, toxicity ([3]; Table 2, dilution 1:400, 24 h): Toxic
